# Measured values taken from ChEMBL document CHEMBL5143608, “Peptide-based long-acting co-agonists of GLP-1 and cholecystokinin 1 receptors as novel anti-diabesity agents” (Eur J Med Chem, 2022).
# Calls of active or inactive are those of the source. No cut-off for these calls is given here.
# How the values were obtained:
# [1] = test system: Mus musculus; experiment: Anti-diabesity activity against db/db mouse assessed as increase in IOD of insulin in pancreas at 25 nmol/kg, sc administered every 2 days for 12 weeks by immunohistochemistry; format: functional, organism-based
# [2] = test system: Mus musculus; experiment: Anti-diabesity activity against db/db mouse assessed as enhanced islets insulin content at 25 nmol/kg, sc administered every 2 days for 3 weeks by immunohistochemistry staining; format: functional, organism-based; details: time 21.0 day
# [3] = Hepatotoxicity in DIO C57BL/6 mouse assessed as aspartate aminotransferase level in serum at 25 nmol/kg, sc administered every 2 days for 3 weeks; format: toxicity, organism-based; details: in vivo, 504 h, time 21 day
# [4] = test system: Mus musculus; experiment: Anti-diabesity activity against db/db mouse assessed as reduction in HbA1c level at 25 nmol/kg, sc administered every 2 days and measured on day 43; format: functional, organism-based; details: time 43.0 day
# [5] = test system: Mus musculus; experiment: Anti-diabesity activity against DIO C57BL/6 mouse assessed as reduction in cholesterol level in serum at 25 nmol/kg, sc administered every 2 days for 3 weeks; format: functional, organism-based; details: time 21.0 day
# [6] = test system: Mus musculus; experiment: Anti-diabesity activity in db/db mouse assessed as improvement in glucose tolerance at 25 nmol/kg, ip pretreated for 15 mins with CCK-1R antagonist, Lorglumide followed by compound administration and 15 mins later treated with oral glucose and measured upto 120 mins by OGTT; format: functional, organism-based; details: time 135.0 min
# [7] = test system: Mus musculus; experiment: Anti-diabesity activity against db/db mouse assessed as improvement in glucose tolerance level at 25 nmol/kg, sc administered every 2 days for 6 weeks followed by saline treatment for 6 weeks and measured during first 6 weeks by OGTT; format: functional, organism-based
# [8] = test system: Rattus norvegicus; experiment: Anorectic activity in Sprague-Dawley rat assessed as reduction in food intake at 25 nmol/kg,ip measured after 24 hrs; format: functional
# [9] = test system: Mus musculus; experiment: Hypoglycemic activity in db/db mouse assessed as improvement in glucose tolerance at 25 nmol/kg, ip administered 30 min before oral glucose administration and measured upto 120 mins by OGTT; format: functional, organism-based
# [10] = test system: Mus musculus; experiment: Anti-diabesity activity against db/db mouse assessed as reduction in HbA1c level at 25 nmol/kg, sc administered every 2 days for 12 weeks; format: functional, organism-based
# [11] = test system: Mus musculus; experiment: Anorectic activity in ICR mouse assessed as decrease in food intake at 25 nmol/kg, ip and measured after 9 hrs; format: functional, organism-based
# [12] = test system: Mus musculus; experiment: Anti-diabesity activity against DIO C57BL/6 mouse assessed as reduction in cumulative food intake at 25 nmol/kg, sc administered every 2 days for 3 weeks; format: functional, organism-based; details: time 21.0 day
# [13] = Pancreatic insult activity in db/db mouse assessed as increase in amylase level in plasma at 100 nmol/kg, sc administered once daily for 7 days; format: toxicity, organism-based; details: in vivo, 168 h, time 7 day
# [14] = Pancreatic insult activity in db/db mouse assessed as increase in lipase level in plasma at 100 nmol/kg, sc administered once daily for 7 days; format: toxicity, organism-based; details: in vivo, 168 h, time 7 day
# [15] = test system: Mus musculus; experiment: Anti-diabesity activity against db/db mouse assessed as reduction in body weight at 25 nmol/kg, sc administered every 2 days for 3 weeks; format: functional, organism-based; details: time 21.0 day
# [16] = Hepatotoxicity in db/db mouse assessed as aspartate aminotransferase level in plasma at 100 nmol/kg, sc administered once daily for 7 days; format: toxicity, organism-based; details: in vivo, 168 h, time 7 day
# [17] = test system: Mus musculus; experiment: Anti-diabesity activity against db/db mouse assessed as reduction in HbA1c level at 25 nmol/kg, sc administered every 2 days for 6 weeks followed by saline treatment for 6 weeks and measured during second 6 weeks; format: functional, organism-based
# [18] = test system: Mus musculus; experiment: Anti-diabesity activity in db/db mouse assessed as decrease in fasted blood glucose level at 100 nmol/kg, sc administered once daily for 7 days; format: functional, organism-based; details: time 7.0 day
# [19] = test system: Mus musculus; experiment: Anti-diabesity activity in db/db mouse assessed as decrease in cumulative food intake at 100 nmol/kg, sc administered once daily for 7 days; format: functional, organism-based; details: time 7.0 day
# [20] = test system: Mus musculus; experiment: Anti-diabesity activity against DIO C57BL/6 mouse assessed as reduction in leptin level in plasma at 25 nmol/kg, sc administered every 2 days for 3 weeks by ELISA; format: functional, organism-based; details: time 21.0 day
# [21] = Renal toxicity in db/db mouse assessed as blood urea nitrogen level in serum at 25 nmol/kg, sc administered every 2 days for 12 weeks; format: organism-based; details: in vivo, 2016 h
# [22] = test system: Mus musculus; experiment: Anti-diabesity activity against db/db mouse assessed as reduction in fasting blood glucose level at 25 nmol/kg, sc administered every 2 days for 6 weeks followed by saline treatment for 6 weeks and measured during second 6 weeks; format: functional, organism-based
# [23] = test system: Mus musculus; experiment: Anti-diabesity activity against db/db mouse assessed as increase in pancreas mass at 25 nmol/kg, sc administered every 2 days for 12 weeks; format: functional, organism-based
# [24] = test system: Mus musculus; experiment: Anti-diabesity activity in db/db mouse assessed as reduction in body weight at 100 nmol/kg, sc administered once daily for 7 days; format: functional, organism-based; details: time 7.0 day
# [25] = Renal toxicity in DIO C57BL/6 mouse assessed as creatinine level in serum at 25 nmol/kg, sc administered every 2 days for 3 weeks; format: organism-based; details: in vivo, 504 h, time 21 day
# [26] = Pancreatic insult activity in db/db mouse assessed as increase in lipase level in serum at 25 nmol/kg, sc administered every 2 days for 12 weeks; format: toxicity, organism-based; details: in vivo, 2016 h
# [27] = Pancreatic insult activity in DIO C57BL/6 mouse assessed as amylase level in serum at 25 nmol/kg, sc administered every 2 days for 3 weeks; format: toxicity, organism-based; details: in vivo, 504 h, time 21 day
# [28] = test system: Mus musculus; experiment: Anti-diabesity activity against db/db mouse assessed as reduction in HbA1c level at 25 nmol/kg, sc administered every 2 days for 6 weeks followed by saline treatment for 6 weeks and measured during first 6 weeks; format: functional, organism-based
# [29] = test system: Mus musculus; experiment: Anti-diabesity activity against DIO C57BL/6 mouse assessed as increase in insulin sensitivity by measuring reduction in circulating insulin levels at 25 nmol/kg, sc administered every 2 days for 3 weeks by ELISA; format: functional, organism-based; details: time 21.0 day
# [30] = Pancreatic insult activity in DIO C57BL/6 mouse assessed as lipase level in serum at 25 nmol/kg, sc administered every 2 days for 3 weeks; format: toxicity, organism-based; details: in vivo, 504 h, time 21 day
# [31] = test system: Mus musculus; experiment: Anti-diabesity activity against db/db mouse assessed as increase in islet number at 25 nmol/kg, sc administered every 2 days for 3 weeks by H and E staining based analysis; format: functional, organism-based; details: time 21.0 day
# [32] = Renal toxicity in db/db mouse assessed as blood urea nitrogen level at 100 nmol/kg, sc administered once daily for 7 days; format: organism-based; details: in vivo, 168 h, time 7 day
# [33] = Hepatotoxicity in db/db mouse assessed as aspartate aminotransferase level in plasma at 25 nmol/kg, sc administered every 2 days for 12 weeks; format: toxicity, organism-based; details: in vivo, 2016 h
# [34] = test system: Mus musculus; experiment: Anti-diabesity activity in DIO C57BL/6 mouse assessed as reduction in cumulative food intake at 100 nmol/kg, sc administered once daily for 7 days; format: functional, organism-based; details: time 7.0 day
# [35] = Cmax in Sprague-Dawley rat at 25 nmol/kg, iv by LC-MS/MS analysis; format: ADME, organism-based; parameters: dose 25 nmol/kg, route iv; details: in vivo
# [36] = Hepatotoxicity in DIO C57BL/6 mouse assessed as aspartate aminotransferase level in plasma at 100 nmol/kg, sc administered once daily for 7 days; format: toxicity, organism-based; details: in vivo, 168 h, time 7 day
# [37] = test system: Mus musculus; experiment: Anti-diabesity activity against DIO C57BL/6 mouse assessed as reduction in fasted blood glucose level at 25 nmol/kg, sc administered every 2 days for 3 weeks; format: functional, organism-based; details: time 21.0 day
# [38] = Half life in Sprague-Dawley rat at 25 nmol/kg, iv by LC-MS/MS analysis; format: ADME, organism-based; details: in vivo
# [39] = test system: Mus musculus; experiment: Anti-diabesity activity against DIO C57BL/6 mouse assessed as decrease in fat mass at 25 nmol/kg, sc administered every 2 days for 3 weeks; format: functional, organism-based; details: time 21.0 day
Structure (SMILES),Activity [1],Activity [2],Activity [3],Activity [4],Activity [5],Activity [6],Activity [7],inhibition in vivo at 0.025 µmol/kg [8],Activity [9],Activity [10],Activity [11],Activity [12],Activity [13],Activity [14],Activity [15],Activity [16],Activity [17],Activity [18],Activity [19],Activity [20],also measured
CCCC[C@H](NC(=O)[C@H](Cc1ccc(CS(=O)(=O)O)cc1)NC(=O)[C@H](CC(=O)O)NC(=O)COCCOCCNC(=O)COCCOCCNC(=O)[C@H](CCCNC(=N)N)NC(=O)CNC(=O)[C@H](CCCCN)NC(=O)[C@@H](NC(=O)[C@H](CC(C)C)NC(=O)[C@H](Cc1c[nH]c2ccccc12)NC(=O)[C@H](C)NC(=O)[C@@H](NC(=O)[C@H](Cc1ccccc1)NC(=O)[C@H](CCC(=O)O)NC(=O)[C@H](CCCCNC(=O)COCCOCCNC(=O)COCCOCCNC(=O)CC[C@H](NC(=O)CCCCCCCCCCCCCCCCC(=O)O)C(=O)O)NC(=O)[C@H](C)NC(=O)[C@H](C)NC(=O)[C@H](CCC(N)=O)NC(=O)CNC(=O)[C@H](CCC(=O)O)NC(=O)[C@H](CC(C)C)NC(=O)[C@H](Cc1ccc(O)cc1)NC(=O)[C@H](CO)NC(=O)[C@H](CO)NC(=O)[C@@H](NC(=O)[C@H](CC(=O)O)NC(=O)[C@H](CO)NC(=O)[C@@H](NC(=O)[C@H](Cc1ccccc1)NC(=O)[C@@H](NC(=O)CNC(=O)[C@H](CCC(=O)O)NC(=O)[C@H](C)NC(=O)[C@@H](N)Cc1cnc[nH]1)[C@@H](C)O)[C@@H](C)O)C(C)C)[C@@H](C)CC)C(C)C)C(=O)NCC(=O)N[C@@H](Cc1c[nH]c2ccccc12)C(=O)N[C@@H](CCCC)C(=O)N(C)[C@H](CC(=O)O)C(=O)N(C)[C@@H](Cc1ccccc1)C(N)=O,Active,Active,Non-Toxic,Active,Active,Active,Active,28%,Active,Active,Active,Active,Non-Toxic,Non-Toxic,Active,Non-Toxic,Active,Active,Active,Active,Activity [21]: Non-Toxic; Activity [22]: Active; Activity [23]: Active; Activity [24]: Active; Activity [25]: Non-Toxic; Activity [26]: Toxic; Activity [27]: Non-Toxic; Activity [28]: Active; Activity [29]: Active; Activity [30]: Non-Toxic; Activity [31]: Active; Activity [32]: Non-Toxic; Activity [33]: Non-Toxic; Activity [34]: Active; Cmax [35]: 1680 ng/mL; Activity [36]: Non-Toxic; Activity [37]: Active; half-life [38]: 6.3 h; Activity [39]: Active
CCCC[C@H](NC(=O)[C@H](Cc1ccc(CS(=O)(=O)O)cc1)NC(=O)[C@H](CC(=O)O)NC(=O)COCCOCCNC(=O)COCCOCCNC(=O)[C@H](CCCCN)NC(=O)CNC(=O)[C@H](CCCCN)NC(=O)[C@@H](NC(=O)[C@H](CC(C)C)NC(=O)[C@H](Cc1c[nH]c2ccccc12)NC(=O)[C@H](CCC(=O)O)NC(=O)[C@@H](NC(=O)[C@H](Cc1ccccc1)NC(=O)[C@H](CCC(=O)O)NC(=O)[C@H](CCCCNC(=O)COCCOCCNC(=O)COCCOCCNC(=O)CC[C@H](NC(=O)CCCCCCCCCCCCCCCCC(=O)O)C(=O)O)NC(=O)[C@H](C)NC(=O)[C@H](C)NC(=O)[C@H](CCC(=O)O)NC(=O)[C@H](CCC(=O)O)NC(=O)[C@H](CCC(=O)O)NC(=O)[C@H](CC(C)C)NC(=O)[C@@H](NC(=O)[C@H](CCC(=O)O)NC(=O)[C@@H](NC(=O)[C@@H](NC(=O)[C@H](CC(=O)O)NC(=O)[C@H](CC(N)=O)NC(=O)[C@@H](NC(=O)[C@H](Cc1ccc(O)cc1)NC(=O)[C@@H](NC(=O)CNC(=O)[C@H](CCC(=O)O)NC(=O)C(C)(C)NC(=O)[C@@H](N)Cc1cnc[nH]1)[C@@H](C)O)[C@@H](C)O)C(C)C)[C@@H](C)O)[C@@H](C)O)[C@@H](C)CC)[C@@H](C)CC)C(=O)NCC(=O)N[C@@H](Cc1c[nH]c2ccccc12)C(=O)N[C@@H](CCCC)C(=O)N(C)[C@H](CC(=O)O)C(=O)N(C)[C@@H](Cc1ccccc1)C(N)=O,Active,Active,Non-Toxic,Active,Active,Active,Active,33%,Active,Active,Active,Active,Non-Toxic,Non-Toxic,Active,Non-Toxic,Active,Active,Active,Active,Activity [21]: Non-Toxic; Activity [22]: Active; Activity [23]: Active; Activity [24]: Active; Activity [25]: Non-Toxic; Activity [26]: Toxic; Activity [27]: Non-Toxic; Activity [28]: Active; Activity [29]: Active; Activity [30]: Non-Toxic; Activity [31]: Active; Activity [32]: Non-Toxic; Activity [33]: Non-Toxic; Activity [34]: Active; Cmax [35]: 1660 ng/mL; Activity [36]: Non-Toxic; Activity [37]: Active; half-life [38]: 9.1 h; Activity [39]: Active
